Earlier results on 2 substances are cited in publication PMC5425492 (Clinical Pharmacokinetics, 2016).

For the substance insulin degludec, the “Within-subject variability in glucose-lowering effect” value is on record as 20%.

Regarding insulin detemir, the “Within-subject variability in glucose-lowering effect” value is recorded as 27%.
